Measurements reported in ChEMBL document CHEMBL1201862, “PubChem BioAssay data set” (2004).
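These data come from cells grown in 96-well plates and exposed to compound for 48 hours at five concentrations. GI50 marks 50% less growth.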 Calls of active or inactive are those of the source. No stated cut-off is given here; in the data, active = GI50 up to about 1.1 µM and inactive = higher.

How the values were obtained:
Test in all cases: DTP human tumour cell line panel, 48 h
KM12 = tested on: KM12
MCF7 = tested on: MCF7
SNB-19 = tested on: SNB-19
Malme-3M = tested on: Malme-3M
OVCAR-5 = tested on: OVCAR-5
CAKI-1 = tested on: CAKI-1
HL-60 = tested on: HL-60
DLD-1 = tested on: DLD-1
EKVX = tested on: EKVX
SK-MEL-28 = tested on: SK-MEL-28
KM-20L2 = tested on: KM-20L2
NCI/ADR-RES = tested on: NCI/ADR-RES
SK-OV-3 = tested on: SK-OV-3
NCI-H226 = tested on: NCI-H226
UO-31 = tested on: UO-31
OVCAR-3 = tested on: OVCAR-3
SW-620 = tested on: SW-620
UACC-62 = tested on: UACC-62
SK-MEL-2 = tested on: SK-MEL-2
UACC-257 = tested on: UACC-257
SF-295 = tested on: SF-295
CCRF-CEM = tested on: CCRF-CEM
M19-MEL = tested on: M19-MEL
SN12C = tested on: SN12C
LOX IMVI = tested on: LOX IMVI
HOP-62 = tested on: HOP-62
MOLT-4 = tested on: MOLT-4
HCT-116 = tested on: HCT-116
SNB-78 = tested on: SNB-78
SF-539 = tested on: SF-539
NCI-H522 = tested on: NCI-H522
SNB-75 = tested on: SNB-75
HT-29 = tested on: HT-29
HCT-15 = tested on: HCT-15
HCC 2998 = tested on: HCC 2998
OVCAR-4 = tested on: OVCAR-4
RPMI-8226 = tested on: RPMI-8226
NCI-H23 = tested on: NCI-H23
COLO 205 = tested on: COLO 205
A549 = tested on: A549
K562 = tested on: K562
DMS-273 = tested on: DMS-273
SF-268 = tested on: SF-268
NCI-H460 = tested on: NCI-H460
XF498 = tested on: XF498
A498 = tested on: A498
OVCAR-8 = tested on: OVCAR-8
HOP-18 = tested on: HOP-18
U-251 = tested on: U-251
SK-MEL-5 = tested on: SK-MEL-5
IGROV-1 = tested on: IGROV-1
HOP-92 = tested on: HOP-92
DMS-114 = tested on: DMS-114
RXF 393 = tested on: RXF 393
SR = tested on: SR
786-0 = tested on: 786-0
TK-10 = tested on: TK-10
ACHN = tested on: ACHN
M14 = tested on: M14
LXFL 529 = tested on: LXFL 529

## CC1(C)CC2(CC(C)(C)N1O)NC(=O)OC2=O
KM12
  GI50: > 100 µM (inactive)
MCF7
  GI50: > 100 µM (inactive)
SNB-19
  GI50: > 100 µM (inactive)
Malme-3M
  GI50: > 100 µM (inactive)
OVCAR-5
  GI50: > 100 µM (inactive)
CAKI-1
  GI50: > 100 µM (inactive)
HL-60
  GI50: > 100 µM (inactive)
DLD-1
  GI50: > 100 µM (inactive)
EKVX
  GI50: > 100 µM (inactive)
SK-MEL-28
  GI50: > 100 µM (inactive)
KM-20L2
  GI50: > 100 µM (inactive)
NCI/ADR-RES
  GI50: > 100 µM (inactive)
SK-OV-3
  GI50: > 100 µM (inactive)
NCI-H226
  GI50: > 100 µM (inactive)
UO-31
  GI50: > 100 µM (inactive)
OVCAR-3
  GI50: > 100 µM (inactive)
SW-620
  GI50: > 100 µM (inactive)
UACC-62
  GI50: > 100 µM (inactive)
SK-MEL-2
  GI50: > 100 µM (inactive)
UACC-257
  GI50: > 100 µM (inactive)
SF-295
  GI50: > 100 µM (inactive)
CCRF-CEM
  GI50: > 77.4 µM (inactive)
M19-MEL
  GI50: > 100 µM (inactive)
SN12C
  GI50: > 100 µM (inactive)
LOX IMVI
  GI50: > 100 µM (inactive)
HOP-62
  GI50: > 100 µM (inactive)
MOLT-4
  GI50: > 100 µM (inactive)
HCT-116
  GI50: > 100 µM (inactive)
SNB-78
  GI50: > 100 µM (inactive)
SF-539
  GI50: > 100 µM (inactive)
NCI-H522
  GI50: > 100 µM (inactive)
SNB-75
  GI50: > 67.3 µM (inactive)
HT-29
  GI50: > 100 µM (inactive)
HCT-15
  GI50: > 100 µM
HCC 2998
  GI50: > 100 µM (inactive)
OVCAR-4
  GI50: > 100 µM (inactive)
RPMI-8226
  GI50: > 100 µM (inactive)
NCI-H23
  GI50: > 100 µM (inactive)
COLO 205
  GI50: > 100 µM (inactive)
A549
  GI50: > 100 µM (inactive)
K562
  GI50: > 100 µM (inactive)
DMS-273
  GI50: > 100 µM (inactive)
SF-268
  GI50: > 100 µM (inactive)
NCI-H460
  GI50: > 31.6 µM (inactive)
XF498
  GI50: > 100 µM (inactive)
A498
  GI50: > 100 µM (inactive)
OVCAR-8
  GI50: > 100 µM (inactive)
HOP-18
  GI50: > 100 µM (inactive)
U-251
  GI50: > 100 µM (inactive)
SK-MEL-5
  GI50: > 100 µM (inactive)
IGROV-1
  GI50: > 100 µM (inactive)
HOP-92
  GI50: > 100 µM (inactive)
DMS-114
  GI50: > 100 µM (inactive)
RXF 393
  GI50: > 100 µM (inactive)

## COc1ccc(C2C(Cl)C(=O)N2NC(=O)Cc2ccccc2)cc1OC (configuration not stated)
KM12
  GI50: > 100 µM (inactive)
SNB-19
  GI50: > 100 µM (inactive)
Malme-3M
  GI50: > 100 µM (inactive)
OVCAR-5
  GI50: > 100 µM (inactive)
CAKI-1
  GI50: > 100 µM (inactive)
HL-60
  GI50: > 100 µM (inactive)
DLD-1
  GI50: > 100 µM (inactive)
EKVX
  GI50: > 100 µM (inactive)
SK-MEL-28
  GI50: > 100 µM (inactive)
KM-20L2
  GI50: > 100 µM (inactive)
SK-OV-3
  GI50: > 100 µM (inactive)
NCI-H226
  GI50: > 100 µM (inactive)
UO-31
  GI50: > 100 µM (inactive)
OVCAR-3
  GI50: > 100 µM (inactive)
SW-620
  GI50: > 100 µM (inactive)
SR
  GI50: > 100 µM (inactive)
UACC-62
  GI50: > 100 µM (inactive)
SK-MEL-2
  GI50: > 100 µM (inactive)
UACC-257
  GI50: > 100 µM (inactive)
SF-295
  GI50: > 100 µM (inactive)
786-0
  GI50: > 100 µM (inactive)
CCRF-CEM
  GI50: > 100 µM (inactive)
M19-MEL
  GI50: > 100 µM (inactive)
SN12C
  GI50: > 100 µM (inactive)
LOX IMVI
  GI50: > 100 µM (inactive)
HOP-62
  GI50: > 100 µM (inactive)
MOLT-4
  GI50: > 100 µM (inactive)
HCT-116
  GI50: > 100 µM (inactive)
SNB-78
  GI50: > 100 µM (inactive)
TK-10
  GI50: > 100 µM (inactive)
NCI-H522
  GI50: > 100 µM (inactive)
SNB-75
  GI50: > 100 µM (inactive)
HT-29
  GI50: > 100 µM (inactive)
HCT-15
  GI50: > 100 µM
HCC 2998
  GI50: > 100 µM (inactive)
OVCAR-4
  GI50: > 100 µM (inactive)
RPMI-8226
  GI50: > 100 µM (inactive)
NCI-H23
  GI50: > 100 µM (inactive)
COLO 205
  GI50: > 100 µM (inactive)
A549
  GI50: > 100 µM (inactive)
K562
  GI50: > 100 µM (inactive)
DMS-273
  GI50: > 100 µM (inactive)
ACHN
  GI50: > 100 µM (inactive)
M14
  GI50: > 100 µM (inactive)
SF-268
  GI50: > 100 µM (inactive)
NCI-H460
  GI50: > 100 µM (inactive)
XF498
  GI50: > 100 µM (inactive)
OVCAR-8
  GI50: > 100 µM (inactive)
HOP-18
  GI50: > 100 µM (inactive)
U-251
  GI50: > 100 µM (inactive)
SK-MEL-5
  GI50: > 100 µM (inactive)
IGROV-1
  GI50: > 100 µM (inactive)
DMS-114
  GI50: > 100 µM (inactive)
RXF 393
  GI50: > 100 µM (inactive)

## O[C@]12c3ccccc3C1CCCC2N1CCOCC1 (some centres not stated)
KM12
  GI50: > 100 µM (inactive)
SNB-19
  GI50: > 100 µM (inactive)
Malme-3M
  GI50: > 100 µM (inactive)
HL-60
  GI50: > 100 µM (inactive)
EKVX
  GI50: > 100 µM (inactive)
SK-MEL-28
  GI50: > 100 µM (inactive)
KM-20L2
  GI50: > 100 µM (inactive)
SK-OV-3
  GI50: > 100 µM (inactive)
NCI-H226
  GI50: > 100 µM (inactive)
UO-31
  GI50: > 100 µM (inactive)
SW-620
  GI50: > 100 µM (inactive)
SR
  GI50: > 10 µM (inactive)
UACC-62
  GI50: > 100 µM (inactive)
SK-MEL-2
  GI50: > 100 µM (inactive)
UACC-257
  GI50: > 100 µM (inactive)
SF-295
  GI50: > 100 µM (inactive)
786-0
  GI50: > 100 µM (inactive)
CCRF-CEM
  GI50: > 100 µM (inactive)
M19-MEL
  GI50: > 100 µM (inactive)
SN12C
  GI50: > 100 µM (inactive)
LOX IMVI
  GI50: > 100 µM (inactive)
HOP-62
  GI50: > 100 µM (inactive)
MOLT-4
  GI50: > 100 µM (inactive)
HCT-116
  GI50: > 100 µM (inactive)
SNB-78
  GI50: > 100 µM (inactive)
TK-10
  GI50: > 100 µM (inactive)
NCI-H522
  GI50: > 100 µM (inactive)
SNB-75
  GI50: > 100 µM (inactive)
HT-29
  GI50: > 100 µM (inactive)
HCT-15
  GI50: > 100 µM
OVCAR-4
  GI50: > 100 µM (inactive)
RPMI-8226
  GI50: > 100 µM (inactive)
NCI-H23
  GI50: > 100 µM (inactive)
COLO 205
  GI50: > 100 µM (inactive)
LXFL 529
  GI50: > 100 µM (inactive)
A549
  GI50: > 100 µM (inactive)
K562
  GI50: > 100 µM (inactive)
DMS-273
  GI50: > 100 µM (inactive)
ACHN
  GI50: > 100 µM (inactive)
M14
  GI50: > 100 µM (inactive)
SF-268
  GI50: > 100 µM (inactive)
NCI-H460
  GI50: > 100 µM (inactive)
XF498
  GI50: > 100 µM (inactive)
OVCAR-8
  GI50: > 100 µM (inactive)
HOP-18
  GI50: > 100 µM (inactive)
U-251
  GI50: > 100 µM (inactive)
SK-MEL-5
  GI50: > 100 µM (inactive)
DMS-114
  GI50: > 100 µM (inactive)
RXF 393
  GI50: > 100 µM (inactive)
